PubChem BioAssay (NCI)
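Growth conditions: 96-well plates. Treatment: test compound, 48 hours, 5 concentrations. Analysis: linear interpolation between bracketing concentrations; unreached endpoints set to highest concentration. GI50 marks 50% less growth. TGI: total growth inhibition.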

Tests used:
Assay in all cases: DTP human tumour cell line panel, 48 h
K-562 leukemia = system: K-562 leukemia
OVCAR-3 ovarian = system: OVCAR-3 ovarian
UACC-257 melanoma = system: UACC-257 melanoma
CCRF-CEM leukemia = system: CCRF-CEM leukemia
OVCAR-4 ovarian = system: OVCAR-4 ovarian
IGROV1 ovarian = system: IGROV1 ovarian
T-47D breast = system: T-47D breast
MALME-3M melanoma = system: MALME-3M melanoma
OVCAR-8 ovarian = system: OVCAR-8 ovarian
HOP-62 NSCLC = system: HOP-62 NSCLC
SF-295 CNS = system: SF-295 CNS
HCT-15 colon = system: HCT-15 colon
SR leukemia = system: SR leukemia
A549 NSCLC = system: A549 NSCLC
SN12C renal = system: SN12C renal
HOP-92 NSCLC = system: HOP-92 NSCLC
786-0 renal = system: 786-0 renal
RXF 393 renal = system: RXF 393 renal
NCI-H460 lung = system: NCI-H460 lung
M14 melanoma = system: M14 melanoma
TK-10 renal = system: TK-10 renal
HL-60(TB) leukemia = system: HL-60(TB) leukemia
SK-MEL-2 melanoma = system: SK-MEL-2 melanoma
NCI/ADR-RES ovarian = system: NCI/ADR-RES ovarian
MCF7 breast = system: MCF7 breast
NCI-H226 lung = system: NCI-H226 lung
SK-MEL-28 melanoma = system: SK-MEL-28 melanoma
HS 578T breast = system: HS 578T breast
UO-31 renal = system: UO-31 renal
A498 renal = system: A498 renal
KM12 colon = system: KM12 colon
PC-3 prostate = system: PC-3 prostate
CAKI-1 renal = system: CAKI-1 renal
ACHN renal = system: ACHN renal
SK-MEL-5 melanoma = system: SK-MEL-5 melanoma
SNB-75 CNS = system: SNB-75 CNS
OVCAR-5 ovarian = system: OVCAR-5 ovarian
MDA-MB-231 breast = system: MDA-MB-231 breast
SF-268 CNS = system: SF-268 CNS
SK-OV-3 ovarian = system: SK-OV-3 ovarian
BT-549 breast = system: BT-549 breast
NCI-H522 lung = system: NCI-H522 lung
MDA-MB-435 = system: MDA-MB-435
EKVX NSCLC = system: EKVX NSCLC
HCT-116 colon = system: HCT-116 colon
MOLT-4 leukemia = system: MOLT-4 leukemia
RPMI-8226 leukemia = system: RPMI-8226 leukemia
SW-620 colon = system: SW-620 colon
SNB-19 CNS = system: SNB-19 CNS
HT29 colon = system: HT29 colon
UACC-62 melanoma = system: UACC-62 melanoma
HCC-2998 colon = system: HCC-2998 colon
LOX IMVI melanoma = system: LOX IMVI melanoma
NCI-H23 lung = system: NCI-H23 lung
DU-145 prostate = system: DU-145 prostate
COLO 205 colon = system: COLO 205 colon
U251 CNS = system: U251 CNS
SF-539 CNS = system: SF-539 CNS

CCN1C(=O)N(CC)C2C1NN=c1s/c(=C\c3ccc[nH]3)c(=O)n12 (stereo unspecified)
GI50 (K-562 leukemia): 0.245 µM
TGI (K-562 leukemia): > 100 µM
GI50 (OVCAR-3 ovarian): 0.279 µM
TGI (OVCAR-3 ovarian): 0.948 µM
GI50 (UACC-257 melanoma): > 100 µM
TGI (UACC-257 melanoma): > 100 µM
GI50 (CCRF-CEM leukemia): 0.402 µM
TGI (CCRF-CEM leukemia): > 100 µM
GI50 (OVCAR-4 ovarian): 1.68 µM
TGI (OVCAR-4 ovarian): > 100 µM
GI50 (IGROV1 ovarian): 0.838 µM
TGI (IGROV1 ovarian): > 100 µM
GI50 (T-47D breast): 0.4 µM
TGI (T-47D breast): > 100 µM
GI50 (MALME-3M melanoma): 0.546 µM
TGI (MALME-3M melanoma): > 100 µM
GI50 (OVCAR-8 ovarian): 0.85 µM
TGI (OVCAR-8 ovarian): > 100 µM
GI50 (HOP-62 NSCLC): 0.603 µM
TGI (HOP-62 NSCLC): > 100 µM
GI50 (SF-295 CNS): 0.334 µM
TGI (SF-295 CNS): > 40.3 µM
GI50 (HCT-15 colon): 0.337 µM
TGI (HCT-15 colon): > 100 µM
GI50 (SR leukemia): 0.148 µM
TGI (SR leukemia): > 38.2 µM
GI50 (A549 NSCLC): 0.523 µM
TGI (A549 NSCLC): > 100 µM
GI50 (SN12C renal): 0.991 µM
TGI (SN12C renal): > 100 µM
GI50 (HOP-92 NSCLC): 13.4 µM
TGI (HOP-92 NSCLC): > 100 µM
GI50 (786-0 renal): 0.614 µM
TGI (786-0 renal): > 100 µM
GI50 (RXF 393 renal): 0.286 µM
TGI (RXF 393 renal): 2.19 µM
GI50 (NCI-H460 lung): 0.36 µM
TGI (NCI-H460 lung): > 41.8 µM
GI50 (M14 melanoma): 0.385 µM
TGI (M14 melanoma): > 100 µM
GI50 (TK-10 renal): > 47.8 µM
TGI (TK-10 renal): > 100 µM
GI50 (HL-60(TB) leukemia): 0.285 µM
TGI (HL-60(TB) leukemia): 1.4 µM
GI50 (SK-MEL-2 melanoma): 0.502 µM
TGI (SK-MEL-2 melanoma): > 100 µM
GI50 (NCI/ADR-RES ovarian): 0.413 µM
TGI (NCI/ADR-RES ovarian): > 100 µM
GI50 (MCF7 breast): 0.273 µM
TGI (MCF7 breast): > 100 µM
TGI (NCI-H226 lung): > 100 µM
TGI (SK-MEL-28 melanoma): > 100 µM
GI50 (HS 578T breast): 0.335 µM
TGI (HS 578T breast): > 100 µM
GI50 (UO-31 renal): 0.719 µM
TGI (UO-31 renal): > 100 µM
GI50 (A498 renal): 0.102 µM
TGI (A498 renal): 0.622 µM
GI50 (KM12 colon): 0.286 µM
TGI (KM12 colon): > 45 µM
GI50 (PC-3 prostate): 0.372 µM
TGI (PC-3 prostate): > 100 µM
GI50 (CAKI-1 renal): 0.301 µM
TGI (CAKI-1 renal): > 100 µM
GI50 (ACHN renal): 0.538 µM
TGI (ACHN renal): > 100 µM
GI50 (SK-MEL-5 melanoma): 0.309 µM
TGI (SK-MEL-5 melanoma): > 41.5 µM
GI50 (SNB-75 CNS): 0.14 µM
TGI (SNB-75 CNS): 0.598 µM
GI50 (OVCAR-5 ovarian): 1.59 µM
TGI (OVCAR-5 ovarian): > 100 µM
GI50 (MDA-MB-231 breast): 3.01 µM
TGI (MDA-MB-231 breast): > 100 µM
GI50 (SF-268 CNS): 0.7 µM
TGI (SF-268 CNS): > 100 µM
GI50 (SK-OV-3 ovarian): 0.301 µM
TGI (SK-OV-3 ovarian): > 100 µM
GI50 (BT-549 breast): 0.834 µM
TGI (BT-549 breast): > 100 µM
GI50 (NCI-H522 lung): 0.244 µM
TGI (NCI-H522 lung): 8.34 µM
GI50 (MDA-MB-435): 0.0832 µM
TGI (MDA-MB-435): 0.421 µM
GI50 (EKVX NSCLC): 0.852 µM
TGI (EKVX NSCLC): > 100 µM
GI50 (HCT-116 colon): 0.453 µM
TGI (HCT-116 colon): > 100 µM
GI50 (MOLT-4 leukemia): 0.543 µM
TGI (MOLT-4 leukemia): > 100 µM
GI50 (RPMI-8226 leukemia): 0.481 µM
TGI (RPMI-8226 leukemia): > 100 µM
GI50 (SW-620 colon): 0.326 µM
TGI (SW-620 colon): > 100 µM
GI50 (SNB-19 CNS): 0.626 µM
TGI (SNB-19 CNS): > 100 µM
GI50 (HT29 colon): 0.342 µM
GI50 (UACC-62 melanoma): 0.435 µM
TGI (UACC-62 melanoma): > 100 µM
GI50 (HCC-2998 colon): 1.82 µM
TGI (HCC-2998 colon): > 100 µM
GI50 (LOX IMVI melanoma): 0.578 µM
TGI (LOX IMVI melanoma): > 100 µM
GI50 (NCI-H23 lung): 1.34 µM
TGI (NCI-H23 lung): > 100 µM
GI50 (DU-145 prostate): 0.496 µM
TGI (DU-145 prostate): > 100 µM
GI50 (COLO 205 colon): 0.349 µM
TGI (COLO 205 colon): 1.82 µM
GI50 (U251 CNS): 0.446 µM
TGI (U251 CNS): > 100 µM
GI50 (SF-539 CNS): 0.246 µM
TGI (SF-539 CNS): 1.05 µM

COc1nc(OC)nc(-c2cccc(F)c2)n1
TGI (K-562 leukemia): 53.7 µM
TGI (OVCAR-3 ovarian): 27.7 µM
TGI (UACC-257 melanoma): 30.7 µM
TGI (CCRF-CEM leukemia): > 100 µM
TGI (OVCAR-4 ovarian): 39.6 µM
TGI (IGROV1 ovarian): 31.8 µM
TGI (T-47D breast): 33.8 µM
TGI (MALME-3M melanoma): 31.2 µM
TGI (OVCAR-8 ovarian): 69.2 µM
TGI (HOP-62 NSCLC): 45.7 µM
TGI (SF-295 CNS): 30 µM
TGI (HCT-15 colon): 29.3 µM
TGI (SR leukemia): 17.5 µM
TGI (A549 NSCLC): 52.6 µM
TGI (SN12C renal): 31.5 µM
TGI (HOP-92 NSCLC): 38.8 µM
TGI (786-0 renal): 63 µM
TGI (RXF 393 renal): 35 µM
TGI (NCI-H460 lung): 32.9 µM
TGI (M14 melanoma): 36.4 µM
TGI (TK-10 renal): 33.1 µM
TGI (HL-60(TB) leukemia): > 100 µM
TGI (SK-MEL-2 melanoma): 38.6 µM
TGI (NCI/ADR-RES ovarian): 31.7 µM
TGI (MCF7 breast): 45.1 µM
TGI (NCI-H226 lung): 31.1 µM
TGI (SK-MEL-28 melanoma): 39.6 µM
TGI (HS 578T breast): 93.5 µM
TGI (UO-31 renal): 31.8 µM
TGI (A498 renal): 34.1 µM
TGI (KM12 colon): 31.7 µM
TGI (PC-3 prostate): 40.2 µM
TGI (CAKI-1 renal): 11.4 µM
TGI (ACHN renal): 30.7 µM
TGI (SK-MEL-5 melanoma): 29.8 µM
TGI (SNB-75 CNS): 44.4 µM
TGI (OVCAR-5 ovarian): 28.5 µM
TGI (MDA-MB-231 breast): 30 µM
TGI (SF-268 CNS): 32 µM
TGI (SK-OV-3 ovarian): 31.4 µM
TGI (BT-549 breast): 29.7 µM
TGI (NCI-H522 lung): 42.4 µM
TGI (MDA-MB-435): 31 µM
TGI (EKVX NSCLC): 18.6 µM
TGI (HCT-116 colon): 40.5 µM
TGI (MOLT-4 leukemia): > 100 µM
TGI (RPMI-8226 leukemia): 45.3 µM
TGI (SW-620 colon): 40.6 µM
TGI (SNB-19 CNS): 32.4 µM
TGI (HT29 colon): 57.9 µM
TGI (UACC-62 melanoma): 22 µM
TGI (HCC-2998 colon): 28.2 µM
TGI (LOX IMVI melanoma): 43.7 µM
TGI (NCI-H23 lung): 29.7 µM
TGI (DU-145 prostate): 26.8 µM
TGI (COLO 205 colon): 37.8 µM
TGI (U251 CNS): 31 µM
TGI (SF-539 CNS): 32.5 µM
